Data taken from article PMC2860993 (PLoS ONE, 2010).
Where two headings read alike, the source gives them in different places.

Key:
[1] = Cellular cytotoxicity, CellTiter-Glo Luminescent Cell Viability Assay; type: cell-based; details: human
Experimental: Human Foreskin Fibroblasts (HFF) passage 12–16 and human lung fibroblasts (HEL) passage 8–12 (from ATCC) were maintained in DMEM containing 10% fetal bovine serum and used for infections with the viruses. Cells in concentrations of 5×10^4 and 1×10^4 were seeded 24 hours prior to infection on each well of 24-and 96-well plates respectively.

[2] = test system: recombinant luciferase-expressing CMV (Towne); assay: microbe, parasite or virus in culture; type: cell-based, human CMV; details: for Selectivity index (SI): ratio between CC50 and EC50
Experimental: Human Foreskin Fibroblasts (HFF) passage 12–16 and human lung fibroblasts (HEL) passage 8–12 (from ATCC) were maintained in DMEM containing 10% fetal bovine serum and used for infections with the viruses.
The CMV strains used for infections were the highly-passaged Towne virus, and a clinical isolate obtained from the urine of a neonate with congenital CMV infection (SB) and passaged once in tissue culture. […] Initial experiments were performed using a recombinant human CMV-green fluorescent protein (GFP) virus, derived from Towne strain. This virus has a 9-kb deletion from the dispensable unique short (US) region from US1 to US12, and instead contains the bacterial artificial chromosome sequences and a GFP expression cassette. […] A recombinant virus expressing luciferase reporter gene under the control of UL99 (pp28) late promoter was generated by insertion of the reporter gene between the US9 and US10 ORFs in the Towne genome.
Towne-GFP, Towne–luciferase, and SB viruses were used in these assays. HFF or HEL were grown to subconfluent monolayers and infected with the CMV viruses at MOI 0.1 to 3. […] The concentration of each compound was calculated and adjusted by volume such that it was constant throughout the experiment. Following 90 minute incubation, media was replaced with fresh media containing the drug used. Infected and treated cells were incubated at 37°C in a 5% CO2 atmosphere for 3–10 days depending on the virus and the anti-viral assay. The recombinant luciferase-expressing virus was incubated for 72 hours, the GFP virus was incubated for 5 days, and the clinical isolate for 10 days. All experiments were subsequently repeated with compounds added to wells just after viral inoculation.

Toxoplasmosis = assay: Anti-toxoplasmosis activity of compounds in supernatants of CMV infected cells; type: cell-based, Toxoplasma gondii; details: Human betaherpesvirus 5; supernatants of CMV infected cells at 3–5 days post infection
Excerpt: To confirm that the difference in anti-CMV activity between monomers and dimers was not a result of instability of the monomers in tissue culture, we determined the anti-toxoplasmosis activity of these compounds in the supernatants of CMV infected cells at 3–5 days post infection.

[3] = test system: CMV IE1 protein expression; assay: Western blot for CMV immediate early protein IE1; type: cell-based, human CMV; details: for expression of IE1 and GFP: 100 µM, Towne-GFP, HFF, day 5 post infection; for IE1 expression: SB clinical isolate
Experimental: Monoclonal antibodies to CMV immediate early proteins IE-1 and IE-2 (MAb810) and to cellular β-actin were purchased from Millipore (Billerica, MA). Confluent cells were infected with CMV in the presence of artemisinin compounds. At the indicated times cells were harvested in sample buffer (RIPA buffer, Tris 50 mM, Nacl 150 mM, SDS 0.1%, Na Deoxycholate 0.5%, NP40 1%, and protease inhibitor cocktail), boiled and loaded onto SDS-PAGE. Proteins were separated by electrophoresis and transferred to nitrocellulose membrane. After blocking, blots were probed with primary antibody (1∶3,000) overnight at 4°C in phosphate-buffered saline, and Tween. After washing 3 times, blots were probed with HRP-conjugated anti-mouse (Sigma), 1∶5,000 for 1 hour at room temperature. Blots were washed three times in phosphate-buffered saline/Tween, and then developed by enhanced chemiluminescence according to manufacturer protocol.
The expression of CMV immediate early (IE) protein was tested by western blot to determine whether artemisinins' inhibition of CMV replication occurs early in the virus life cycle. […] Further evidence for the early effect of artemisinins on IE1 protein expression was obtained with the clinical isolate (SB, Fig. 5b).
Western blot for IE1 and GFP performed at day 5 post infection. […] Western blot for IE1 was performed at 12 hr (MOI = 3), 24 hr and 48 hr (MOI = 1) post infection.

[4] = test system: recombinant luciferase-expressing CMV; assay: Plaque reduction assay in human embryonic lung cells; type: cell-based, human CMV; details: 10 µM; HEL cells; luciferase virus; 10 days
Experimental: For plaque reduction assay, human embryonic lung cells were seeded into six-well plates and incubated at 37°C one day prior to infection with the recombinant luciferase-expressing CMV. Serial dilutions of GCV, artesunate and artefanilide were used. The virus was diluted to a desired concentration which gave 50–60 plaques per well. Medium was aspirated from the wells, and 0.2 ml of virus suspension was added to each well in triplicates. Plates were incubated for 90 minutes with shaking every 10 min, thereafter drugs were added and a methylcellulose overlay applied to each well. After incubation for 10 days, cells were stained with crystal violet. The stain was aspirated, wells were washed with phosphate-buffered saline, and plaques were counted.

CMV clinical isolates = test system: CMV clinical isolates; parameters: method as in PMID 11976732; details: 11.1 µM ref 19; cited from earlier work
[5] = Human betaherpesvirus 5, read-out: EC50 (µM) - CMV
[6] = drug concentration that leads to 50% cellular cytotoxicity, mean and SD, at least five independent experiments, read-out: CC50

Row | Structure (SMILES) | CC50 [1] [µM] | EC50 ([2]; Human betaherpesvirus 5, 72 h) [µM] | EC50 [2, 5] [µM] | Selectivity index (SI) [2] | EC50 (Toxoplasmosis) [µM] | CC50 [1, 6] [µM] | expression of IE1 and GFP ([3]; MOI of 0.1) | expression of IE1 and GFP ([3]; MOI of 0.5) | IE1 expression ([3]; 10 µM, MOI = 1, 24 and 48 hr) | reduction in plaque formation [4] [%] | in-vitro inhibition of clinical isolates (CMV clinical isolates) | selectivity relative to GCV ([2]; comparison of SI, Table 1) | IE1 expression ([3]; 1 µM, MOI = 1, 24 and 48 hr) | IE1 expression ([3]; 1 µM, MOI = 3, 12 hours post infection)
1 | CO[C@H]1O[C@@H]2O[C@@]3(C)CC[C@H]4[C@H](C)CC[C@@H]([C@H]1C)[C@@]24OO3 [Artemether (2c), artemether] | 18.4 ± 7.5 | 5.3 ± 2.7 | 5.1 ± 2.1 | 3.5±2.2 | 0.58 ± 0.22 |  |  |  |  |  |  |  |  | 
2 | C[C@H]1[C@@H](CCC(=O)Nc2ccc(F)cc2)O[C@@H]2O[C@@]3(C)CC[C@H]4[C@H](C)CC[C@@H]1[C@@]24OO3 [Artefanilide (3), artefanilide] | 44.9 ± 3.4 | 8.1 ± 2.2 |  | 5.5±1.6 |  |  |  |  |  |  |  |  |  | 
3 | C[C@@H]1CC[C@H]2[C@@H](C)C(=O)O[C@@H]3O[C@@]4(C)CC[C@@H]1[C@]32OO4 [Artemisinin (1), artemisinin] |  | 16.8 ± 4 | 15.7 ± 4.5 |  | 4.1 ± 1.1 | 72.4 ± 15.7 | undetectable | decreased |  |  |  |  |  | 
4 | Nc1nc(O)c2ncn(COC(CO)CO)c2n1 [GCV, Ganciclovir] |  | 5.6 ± 0.2 |  |  |  | 247 ± 33.4 |  |  | not affected | 80 |  |  |  | 
5 | C[C@H]1[C@H](OC(=O)CCC(=O)O)O[C@@H]2O[C@@]3(C)CC[C@H]4[C@H](C)CC[C@@H]1[C@@]24OO3 [Artesunate (2d), artesunate] |  | 18.5 ± 5.2 | 17.2 ± 3.4 | 4.2±2.2 | 3.2 ± 0.8 | 77.5 ± 14.4 |  |  |  |  | 50–80% |  |  | 
6 | C[C@H]1[C@@H](CC(C[C@H]2O[C@@H]3O[C@@]4(C)CC[C@H]5[C@H](C)CC[C@@H]([C@H]2C)[C@@]35OO4)CS(=O)(=O)c2ccc(COC(=O)N(C)C)cc2)O[C@@H]2O[C@@]3(C)CC[C@H]4[C@H](C)CC[C@@H]1[C@@]24OO3 (some centres unmarked) [Dimer sulfone carbamate (6), dimer sulfone dimethyl carbamate] | 28.1 ± 9.6 | 0.06 |  | 508±173 |  |  |  |  |  |  |  | approximately 10 times |  | 
7 | C[C@H]1[C@@H](CC(CO)C[C@H]2O[C@@H]3O[C@@]4(C)CC[C@H]5[C@H](C)CC[C@@H]([C@H]2C)[C@@]35OO4)O[C@@H]2O[C@@]3(C)CC[C@H]4[C@H](C)CC[C@@H]1[C@@]24OO3 (some centres unmarked) [Dimer primary alcohol (4), dimer primary alcohol] | 57 ± 2.3 | 0.15 ± 0.02 | 0.16 ± 0.04 | 380±53 | 0.4 ± 0.15 |  |  |  |  |  |  |  | significantly reduced | inhibition of IE1 expression
